Measurements: patent US4454139A, “α2 -Adrenoceptor antagonistic benzoquinolizines” (John Wyeth & Brother, Limited, priority 1980, dated 1984)

Assays:
[1] = system: postsynaptic (α1) α-adrenoceptor; assay: postsynaptic (α1) antagonistic activity on the isolated anococcygeus muscle of the rat (phenylephrine or methoxamine agonist); type: cell-based
Excerpt: (§1) The postsynaptic(α1)antagonistic activity can be evaluated by a number of different methods. One method involves assessing the activity on the isolated anococcygeus muscle of the rat. The method is based on that of Gillespie, Br.J.Pharmac., 1972, 45, 404-416. In the procedure male rats (250-360 g) are killed by a blow on the head and bled. The two anococcygeus muscles are removed from their position in the midline of the pelvic cavity, where they arise from the upper coccygeal vertebrae. The muscles are suspended in 5 ml organ baths in Krebs solution containing 10^-4 M ascorbic acid, to prevent drug oxidation. The tissues are gassed with a 95% oxygen, 5% CO2 mixture and maintained at 37°. Longitudinal muscle contractions are recorded using isotonic transducers. Cumulative dose response curves are then obtained to phenylephrine or in some cases methoxamine, both agents being postsynaptic alpha adrenoceptor agonists. The concentration range of phenylephrine or methoxamine used is 0.02 to 0.8 μg.ml^-1. The agonist is then washed from the bath and the test drug added to the bathing medium at a concentration of 10^-6 M. After 30 min. equilibration with the test drug a further agonist dose response curve is obtained. The washing, equilibration and agonists dosing procedures are then repeated using 10^-5 M and 10^-4 M solutions of the test drug. Estimates of the pA2 value for the test drug as an antagonist of phenylephrine or methoxamine were made from the agonist dose-ratios using the method of Arunlakshana & Schild, Br.J.Pharmac.Chemother., 1959, 14, 48-58.

[2] = target: T1, postsynaptic (α1) α-adrenoceptor (Rattus norvegicus, UniProt P43140); assay: as above; type: cell-based; details: rat anococcygeus muscle; phenylephrine or methoxamine as agonist; α1; read-out: pA2 (postsynaptic) (converted)
T1 construct: the isolated anococcygeus muscle of the rat; from tissue; host or cells: rat anococcygeus muscle (male rats, 250-360 g)
T1 sequence (P43140 1-466): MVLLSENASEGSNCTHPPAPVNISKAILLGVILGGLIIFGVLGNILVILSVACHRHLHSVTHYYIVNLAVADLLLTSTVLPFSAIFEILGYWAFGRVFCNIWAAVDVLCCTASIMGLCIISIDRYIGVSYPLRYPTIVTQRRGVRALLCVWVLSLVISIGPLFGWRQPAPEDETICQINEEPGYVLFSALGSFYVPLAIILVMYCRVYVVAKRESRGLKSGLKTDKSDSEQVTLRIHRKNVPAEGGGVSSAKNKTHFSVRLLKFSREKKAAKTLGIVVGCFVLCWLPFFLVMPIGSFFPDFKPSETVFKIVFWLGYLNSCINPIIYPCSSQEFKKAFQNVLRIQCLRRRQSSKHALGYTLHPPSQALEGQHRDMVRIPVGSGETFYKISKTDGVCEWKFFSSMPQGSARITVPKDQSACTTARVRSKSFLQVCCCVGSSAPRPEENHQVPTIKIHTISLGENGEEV
Excerpt: as §1

[3] = target: T2, α2 (presynaptic α)-adrenoceptor (Rattus norvegicus, UniProt P22909); assay: α2-adrenoceptor antagonistic activity on the rat field stimulated vas deferens preparation (clonidine agonist); type: cell-based; details: clonidine as agonist, Arunlakshana & Schild; for Kb: read-out: pA2 (α2) (converted); for pA2 (α2): 90 min
T2 construct: from tissue; host or cells: rat vas deferens (desheathed, field stimulated)
T2 sequence (P22909 1-465): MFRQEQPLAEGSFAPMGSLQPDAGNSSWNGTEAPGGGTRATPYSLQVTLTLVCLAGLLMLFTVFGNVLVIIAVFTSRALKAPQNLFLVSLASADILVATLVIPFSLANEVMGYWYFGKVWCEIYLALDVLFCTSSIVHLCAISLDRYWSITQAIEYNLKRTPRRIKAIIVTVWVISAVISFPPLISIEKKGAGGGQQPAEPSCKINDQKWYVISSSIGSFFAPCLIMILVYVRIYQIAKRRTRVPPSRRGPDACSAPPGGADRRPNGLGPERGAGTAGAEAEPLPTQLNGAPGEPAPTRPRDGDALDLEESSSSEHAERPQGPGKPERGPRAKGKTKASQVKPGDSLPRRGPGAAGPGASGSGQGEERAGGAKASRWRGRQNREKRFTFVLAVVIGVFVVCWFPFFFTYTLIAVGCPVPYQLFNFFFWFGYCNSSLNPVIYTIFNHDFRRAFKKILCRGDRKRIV
Description: The compounds of the invention were tested for their α2 -adrenoceptor antagonistic activity on the rat field stimulated vas deferens preparation using a modification of the method of Drew, Eur.J.Pharmac., 1977, 42, 123-130. The procedure is described below. […] from sexually mature rats were suspended in a 6 ml organ bath in Krebs solution at 37° and bubbled with 5% CO2 in oxygen. Platinum ring electrodes were positioned above and below the tissue for field stimulation, the stimulus parameters being 0.1 Hz 1 ms pulse width at supramaximal voltage. Twitch responses were recorded isotonically with a 0.5 g loading. […] After washing out clonidine, the twitch response quickly recovered and an antagonist was then introduced into the Krebs reservoir. Clonidine concentration-response curves were repeated 90 min after introduction of the antagonist. The concentration of clonidine producing 50% inhibition of twitch before and after introduction of antagonist were obtained and the dose-ratio for clonidine was calculated. Various concentrations of the antagonists were used. […] Chemother., 1959, 14, 48-58 and the values of pA2 and slope were calculated.

[4] = system: hyperglycaemia induced by the α2 agonist clonidine; assay: inhibition of clonidine-induced hyperglycaemia in rats; type: in vivo, rat; details: 10 mg/kg, clonidine 15 μg/kg subcutaneous
human blood platelets = assay: inhibition of adrenaline-induced aggregation in vitro of human blood platelets; type: cell-based
[5] = system: rats rendered hypertensive by implantation of desoxycorticosterone acetate; assay: hypotensive activity in rats rendered hypertensive by implantation of desoxycorticosterone acetate; type: in vivo, rat

| Kb [2] | Kb [3] | pA2 (α2) [3] | SMILES | α2 selectivity [1] | inhibition of the hyperglycaemia induced by clonidine [4] | inhibition of the aggregation in vitro of human blood platelets induced by adrenaline (human blood platelets) | hypotensive activity [5] |
| --- | --- | --- | --- | --- | --- | --- | --- |
| 468 nM | 7.94 nM |  | Cc1ccc(S(=O)(=O)N(C)[C@@H]2CCN3CCc4ccccc4[C@@H]3C2)cc1 (relative stereo) [F, N-Methyl-N-(1,3,4,6,7,11bα-hexahydro-2H-benzo[a]quinolizin-2β-yl)toluene-4-sulphonamide] | 59 |  |  |  |
| 3310 nM | 31.6 nM |  | CN([C@@H]1CCN2CCc3ccccc3[C@@H]2C1)S(=O)(=O)c1ccc(Cl)c(Cl)c1 (relative stereo) [J, N-Methyl-N-(1,3,4,6,7,11bα-hexahydro-2H-benzo[a]quinolizin-2β-yl)-3,4-dichlorobenzenesulphonamide] | 93 |  |  |  |
| 251 nM | 12.6 nM |  | CCCCS(=O)(=O)N(C)[C@@H]1CCN2CCc3ccccc3[C@@H]2C1 (relative stereo) [K, N-Methyl-N-(1,3,4,6,7,11bα-hexahydro-2H-benzo[a]quinolizin-2β-yl)-n-butanesulphonamide] | 19 |  |  |  |
|  | 100 nM |  | CCCN([C@@H]1CCN2CCc3ccccc3[C@@H]2C1)S(C)(=O)=O (relative stereo) [N--(n-Propyl)-N--(1,3,4,6,7,11bα-hexahydro-2H--benzo[a]quinolizin-2β-yl)methanesulphonamide, reference compound] |  |  |  |  |
|  | 158 nM |  | COc1cc2c(cc1OC)[C@@H]1C[C@H](N(C)S(C)(=O)=O)CCN1CC2 (relative stereo) [N--methyl-N--(9,10-dimethoxy-1,3,4,6,7,11bα-hexahydro-2H--benzo[a]quinolizin-2β-yl)-methanesulphonamide, reference compound] |  |  |  |  |
| 813 nM | 25.1 nM |  | CN([C@@H]1CCN2CCc3ccccc3[C@@H]2C1)S(=O)(=O)c1ccc(Cl)cc1 (relative stereo) [H, N-Methyl-N-(1,3,4,6,7,11bα-hexahydro-2H-benzo[a]quinolizin-2β-yl)-4-chlorobenzenesulphonamide] | 32 |  |  |  |
|  | 126 nM |  | CS(=O)(=O)NC1CCN2CCc3ccccc3C2C1 (centres unmarked) [2-methanesulphonamido-1,3,4,6,7,11b-hexahydro-2H--benzo[a]quinolizine, reference compound] |  |  |  |  |
| 562 nM | 15.8 nM |  | CCN([C@@H]1CCN2CCc3ccccc3[C@@H]2C1)S(C)(=O)=O (relative stereo) [E, N--Ethyl-N--(1,3,4,6,7,11bα-hexahydro-2H--benzo[a]quinolizin-2-62-yl)methanesulphonamide] | 35.5 |  |  |  |
| 537 nM | 12.6 nM |  | Cc1ccccc1S(=O)(=O)N(C)[C@@H]1CCN2CCc3ccccc3[C@@H]2C1 (relative stereo) [I, N-Methyl-N-(1,3,4,6,7,11bα-hexahydro-2H-benzo[a]quinolizin-2β-yl)-2-methylbenzenesulphonamide] | 40 |  |  |  |
|  |  | 5.3 | CCS(=O)(=O)NC1CCN2CCc3ccccc3C2C1 (centres unmarked) [2βethanesulphonamido-1,3,4,6,7,11b-hexahydro-2H--benzo[a]quinolizine, reference compound] |  |  |  |  |
| 457 nM | 3.98 nM |  | CN([C@@H]1CCN2CCc3ccccc3[C@@H]2C1)S(=O)(=O)c1ccccc1 (relative stereo) [D, N-methyl-N-(1,3,4,6,7,11bα-hexahydro-2H-benzo[a]quinolizin-2β-yl)benzenesulphonamide] | 102 | inhibited the hyperglycaemia |  |  |
|  | 316 nM |  | CCCS(=O)(=O)N[C@@H]1CCN2CCc3ccccc3[C@@H]2C1 (relative stereo) [2β-(n-propanesulphonamido-1,3,4,6,7,11bα-hexahydro-2H--benzo[a]quinolizine, reference compound] |  |  |  |  |
|  | 2510 nM |  | S=C(Nc1ccccc1)NC1CCN2CCc3ccccc3C2C1 (centres unmarked) [1-(1,3,4,6,7,11b-hexahydro-2H--benzo[a]quinolizin-2yl)-3-phenylthiourea, reference compound] |  |  |  |  |
| 316 nM | 7.94 nM |  | COc1ccc(S(=O)(=O)N(C)[C@@H]2CCN3CCc4ccccc4[C@@H]3C2)cc1 (relative stereo) [G, N-Methyl-N-(1,3,4,6,7,11bα-hexahydro-2H-benzo[a]quinolizin-2β-yl)-4-methoxybenzenesulphonamide] | 40 |  |  |  |
|  |  | 6.4 | O=S(=O)(NC1CCN2CCc3ccccc3C2C1)c1ccccc1 (stereo not drawn) [2β-phenylsulphonamido-1,3,4,6,7,11b-hexahydro-2H--benzo[a]quinolizine, reference compound] |  |  |  |  |
| 324 nM | 3.16 nM |  | CC(C)CS(=O)(=O)N(C)[C@@H]1CCN2CCc3ccccc3[C@@H]2C1 (relative stereo) [L, N-Methyl-N-(1,3,4,6,7,11bα-hexahydro-2H-benzo[a]quinolizin-2β-yl)-isobutanesulphonamide] | 93 | inhibited the hyperglycaemia |  |  |
| 724 nM | 5.01 nM |  | CCCS(=O)(=O)N(C)[C@@H]1CCN2CCc3ccccc3[C@@H]2C1 (relative stereo) [C, N-Methyl-N-(1,3,4,6,7,11bα-hexahydro-2H-benzo[a]quinolizin-2β-yl)propan-1-sulphonamide] | 144 |  | inhibit the aggregation |  |
| 676 nM | 20 nM |  | CCS(=O)(=O)N(C)[C@@H]1CCN2CCc3ccccc3[C@@H]2C1 (relative stereo) [B, N-Methyl-N-(1,3,4,6,7,11bα-hexahydro-2H-benzo[a]quinolizin-2β-yl)ethanesulphonamide] | 34 |  |  |  |
|  | 3980 nM |  | O=C(Nc1ccccc1)NC1CCN2CCc3ccccc3C2C1 (centres unmarked) [1-(1,3,4,6,7,11b-hexahydro-2H benzo[a]quinolizin-2yl)-3-phenyl urea, reference compound] |  |  |  |  |
| 1120 nM | 20 nM |  | CN([C@@H]1CCN2CCc3ccccc3[C@@H]2C1)S(C)(=O)=O (relative stereo) [A, N-Methyl-N-(1,3,4,6,7,11bα-hexahydro-2H-benzo[a]quinolizin-2β-yl)methanesulphonamide] | 56 | inhibited the hyperglycaemia | inhibit the aggregation | do not possess substantial hypotensive activity |
